Results as given in patent US11230526B1, “Cylcoalkenyl derivatives useful as agonists of the GPR120 and/or GPR40 receptors” (Janssen Pharmaceutica NV, priority 2018, dated 2022).

Tests used:
human GPR40 = molecular target: T1, human GPR40 (Homo sapiens, UniProt O14842); assay: GPR40 calcium flux assay, human GPR40; format: cell-based; conditions: HEK293 cells stably expressing GPR40; table does not say human or rat
T1 construct: expressed in transfected cells
Summary of the method: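 Cells preincubated 1 h at 37° C. in HBSS, 20 mM HEPES, 0.1% BSA, then Fluo 8 calcium dye 30 min at 37° C. and 15 min at room temperature.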

Human GPR120 short form = molecular target: T2, Human GPR120 short form (Homo sapiens, UniProt Q5NUL3); assay: Human GPR120 calcium flux assay, Procedure Calcium B (4200 cells/well); format: cell-based
T2 construct: expressed in transfected cells
T2 sequence (Q5NUL3 1-361): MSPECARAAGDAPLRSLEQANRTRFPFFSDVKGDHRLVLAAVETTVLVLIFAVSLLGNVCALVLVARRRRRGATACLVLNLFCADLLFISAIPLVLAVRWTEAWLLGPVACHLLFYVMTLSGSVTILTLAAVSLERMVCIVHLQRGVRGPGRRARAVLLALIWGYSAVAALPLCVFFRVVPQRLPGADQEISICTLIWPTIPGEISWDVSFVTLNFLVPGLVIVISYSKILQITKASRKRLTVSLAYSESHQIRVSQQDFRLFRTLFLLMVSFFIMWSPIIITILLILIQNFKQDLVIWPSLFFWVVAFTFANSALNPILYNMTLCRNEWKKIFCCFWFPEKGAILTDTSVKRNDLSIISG
Summary of the method: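 Agonist EC50 came from a four-parameter fit of RFU (Fmax−Fmin) read over 300 s on FLIPR. Cells were HEK293 stably transfected with human GPR120 (NM_001195755.1) at 4200 per well, serum-starved 1 h and loaded with Fluo-4 NW dye with probenecid before ligand addition.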

T1 sequence (O14842 whole entry): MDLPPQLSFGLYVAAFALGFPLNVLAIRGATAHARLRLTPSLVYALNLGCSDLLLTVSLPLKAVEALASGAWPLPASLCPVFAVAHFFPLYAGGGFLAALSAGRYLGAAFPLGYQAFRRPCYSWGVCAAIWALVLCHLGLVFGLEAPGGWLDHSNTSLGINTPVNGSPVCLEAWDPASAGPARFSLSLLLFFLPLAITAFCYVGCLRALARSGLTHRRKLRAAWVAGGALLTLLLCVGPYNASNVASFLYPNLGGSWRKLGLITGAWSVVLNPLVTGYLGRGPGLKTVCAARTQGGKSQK

Row | Compound | EC50 (human GPR40) | EC50 (Human GPR120 short form)
1 | Cc1cc(OCC2=C(c3ccc(F)cc3)CC(F)(F)C2)c(F)cc1CCC(=O)O [Compound 402, 3-[4-[[4,4-difluoro-2-(4-fluorophenyl)cyclopenten-1-yl]methoxy]-5-fluoro-2-methyl-phenyl]Propanoic Acid] | 1.09 µM | 0.278 µM
2 | O=C(O)CCc1ccc(OCC2=C(C(=O)c3ccccc3)CCC2)cc1C(F)(F)F [Compound 403, 3-[4-[(2-benzoylcyclopenten-1-yl)methoxy]-2-(trifluoromethyl)phenyl]Propanoic Acid] | 1.14 µM | 1.49 µM
3 | O=C(O)CCc1ccc(OCC2=C(Cc3ccccc3F)CCC2)cc1C(F)(F)F [Compound 404, 3-[4-[[2-[(2-fluorophenyl)methyl]cyclopenten-1-yl]methoxy]-2-(trifluoromethyl)phenyl]Propanoic Acid] | 0.105 µM | 1.91 µM
4 | Cc1cccc(CC2=C(COc3ccc(CCC(=O)O)c(C(F)(F)F)c3)CCC2)c1 [Compound 405, 3-[4-[[2-(m-tolylmethyl)cyclopenten-1-yl]methoxy]-2-(trifluoromethyl)phenyl]Propanoic Acid] | 0.205 µM | 1.82 µM
5 | Cc1cccc(CC2=C(COc3ccc(CCC(=O)O)c(Cl)c3)CCC2)c1 [Compound 406, 3-[2-chloro-4-[[2-(m-tolylmethyl)cyclopenten-1-yl]methoxy]phenyl]Propanoic Acid] | 0.152 µM | > 5 µM
6 | O=C(O)CCc1ccc(OCC2=C(C3CCCC3)CC(F)(F)C2)cc1C(F)(F)F [Compound 407, 3-[4-[(2-cyclopentyl-4,4-difluoro-cyclopenten-1-yl)methoxy]-2-(trifluoromethyl)phenyl]Propanoic Acid] | 0.03 µM | 0.15 µM
7 | O=C(O)CCc1ccc(OCC2=C(C3CCCC3)CC(F)(F)C2)cc1Cl [Compound 409, 3-[2-chloro-4-[(2-cyclopentyl-4,4-difluoro-cyclopenten-1-yl)methoxy]phenyl]Propanoic Acid] | 0.025 µM | 0.086 µM
8 | CC(C)c1cc(OCC2=C(C3CCCC3)CCC2)ccc1CCC(=O)O [Compound 410, 3-[4-[(2-cyclopentylcyclopenten-1-yl)methoxy]-2-isopropyl-phenyl]Propanoic Acid] | 0.128 µM | 0.996 µM
9 | O=C(O)CCc1ccc(OCC2=C(C3CCC(F)(F)CC3)CCC2)cc1Cl [Compound 411, 3-[2-chloro-4-[[2-(4,4-difluorocyclohexyl)cyclopenten-1-yl]methoxy]phenyl]Propanoic Acid] | 0.133 µM | > 5 µM
10 | O=C(O)CCc1ccc(OCC2=C(C3CCC(F)(F)CC3)CCC2)cc1 [Compound 412, 3-[4-[[2-(4,4-difluorocyclohexyl)cyclopenten-1-yl]methoxy]phenyl]Propanoic Acid] | 0.513 µM | 4.65 µM
11 | Cc1c(CCC(=O)O)ccc(OCC2=C(C3CCC(F)(F)CC3)CCC2)c1C [Compound 413, 3-[4-[[2-(4,4-difluorocyclohexyl)cyclopenten-1-yl]methoxy]-2,3-dimethyl-phenyl]Propanoic Acid] | > 10 µM | 1.8 µM
12 | O=C(O)CCc1ccc(OCC2=C(C3CCOCC3)CCC2)cc1C(F)(F)F [Compound 415, 3-[4-[(2-tetrahydropyran-4-ylcyclopenten-1-yl)methoxy]-2-(trifluoromethyl)phenyl]Propanoic Acid] | 0.132 µM | > 5 µM
13 | O=C(O)CCc1ccc(OCC2=C(C3CCC(F)(F)CC3)CCC2)cc1C(F)(F)F [Compound 416, 3-[4-[[2-(4,4-difluorocyclohexyl)cyclopenten-1-yl]methoxy]-2-(trifluoromethyl)phenyl]Propanoic Acid] | 0.094 µM | > 5 µM
14 | Cc1cc(OCC2=C(C3CCC(F)(F)CC3)CCC2)c(F)cc1CCC(=O)O [Compound 417, 3-[4-[[2-(4,4-difluorocyclohexyl)cyclopenten-1-yl]methoxy]-5-fluoro-2-methyl-phenyl]Propanoic Acid] | 1.01 µM | > 5 µM
15 | O=C(O)CCc1ccc(OCC2=C(C3CCOCC3)CCC2)cc1Cl [Compound 418, 3-[2-chloro-4-[(2-tetrahydropyran-4-ylcyclopenten-1-yl)methoxy]phenyl]Propanoic Acid] | 0.171 µM | > 5 µM
16 | O=C(O)CCc1cc(F)c(OCC2=C(C3CCC(F)(F)CC3)CCC2)c(F)c1 [Compound 419, 3-[4-[[2-(4,4-difluorocyclohexyl)cyclopenten-1-yl]methoxy]-3,5-difluoro-phenyl]Propanoic Acid] | > 10 µM | 3.17 µM
17 | O=C(O)CCc1ccc(OCC2=C(C3CCCC3)CCC2)cc1Br [Compound 421, 3-[2-bromo-4-[(2-cyclopentylcyclopenten-1-yl)methoxy]phenyl]Propanoic Acid] | 0.025 µM | 0.222 µM

Row | Compound | EC50 (human GPR40) | EC50 (Human GPR120 short form)
18 | Cc1cc(OCC2=C(C3CCCC3)CCC2)ccc1CCC(=O)O [Compound 422, 3-[4-[(2-cyclopentylcyclopenten-1-yl)methoxy]-2-methyl-phenyl]Propanoic Acid] | 0.048 µM | 0.177 µM
19 | CCc1cc(OCC2=C(C3CCCC3)CCC2)ccc1CCC(=O)O [Compound 423, 3-[4-[(2-cyclopentylcyclopenten-1-yl)methoxy]-2-ethyl-phenyl]Propanoic Acid] | 0.061 µM | 0.272 µM
20 | Cc1cc(OCC2=C(C3CCCC3)CCC2)c(F)cc1CCC(=O)O [Compound 424, 3-[4-[(2-cyclopentylcyclopenten-1-yl)methoxy]-5-fluoro-2-methyl-phenyl]Propanoic Acid] | 0.248 µM | 0.245 µM
21 | O=C(O)CCc1ccc(OCC2=C(C3CCCC3)CCC2)c(F)c1 [Compound 425, 3-[4-[(2-cyclopentylcyclopenten-1-yl)methoxy]-3-fluoro-phenyl]Propanoic Acid] | 3.23 µM | 0.143 µM
22 | O=C(O)CCc1ccc(OCC2=C(C3CCCC3)CCC2)cc1F [Compound 426, 3-[4-[(2-cyclopentylcyclopenten-1-yl)methoxy]-2-fluoro-phenyl]Propanoic Acid] | 0.082 µM | 0.2 µM
23 | O=C(O)CCc1ccc(OCC2=C(C3CCCC3)CCC2)cc1Cl [Compound 428, 3-[2-chloro-4-[(2-cyclopentylcyclopenten-1-yl)methoxy]phenyl]Propanoic Acid] | 0.048 µM | 0.256 µM
24 | O=C(O)CCc1ccc(OCC2=C(C3(F)CCC3)CC(F)(F)C2)cc1C(F)(F)F [Compound 429, 3-[4-[[4,4-difluoro-2-(1-fluorocyclobutyl)cyclopenten-1-yl]methoxy]-2-(trifluoromethyl)phenyl]Propanoic Acid] | 0.089 µM | 0.844 µM
25 | O=C(O)CCc1ccc(OCC2=C(C3CCC3)CC(F)(F)C2)cc1Cl [Compound 430, 3-[2-chloro-4-[(2-cyclobutyl-4,4-difluoro-cyclopenten-1-yl)methoxy]phenyl]Propanoic Acid] | 0.046 µM | 0.335 µM
26 | Cc1c(CCC(=O)O)ccc(OCC2=C(C3CCCC3)CCC2)c1F [Compound 431, 3-[4-[(2-cyclopentylcyclopenten-1-yl)methoxy]-3-fluoro-2-methyl-phenyl]Propanoic Acid] | > 10 µM | 0.059 µM
27 | Cc1c(CCC(=O)O)ccc(OCC2=C(C3CCCC3)CCC2)c1C [Compound 432, 3-[4-[(2-cyclopentylcyclopenten-1-yl)methoxy]-2,3-dimethyl-phenyl]Propanoic Acid] | > 10 µM | 0.044 µM
28 | O=C(O)CCc1cc(F)c(OCC2=C(C3CCCC3)CCC2)cc1C(F)(F)F [Compound 433, 3-[4-[(2-cyclopentylcyclopenten-1-yl)methoxy]-5-fluoro-2-(trifluoromethyl)phenyl]Propanoic Acid] | > 10 µM | > 5 µM
29 | COc1cc(OCC2=C(C3CCCC3)CCC2)ccc1CCC(=O)O [Compound 434, 3-[4-[(2-cyclopentylcyclopenten-1-yl)methoxy]-2-methoxy-phenyl]Propanoic Acid] | 0.059 µM | 0.387 µM
30 | O=C(O)CCc1ccc(OCC2=C(C3CCCC3)CCC2)c(F)c1C(F)(F)F [Compound 435, 3-[4-[(2-cyclopentylcyclopenten-1-yl)methoxy]-3-fluoro-2-(trifluoromethyl)phenyl]Propanoic Acid] | > 10 µM | > 5 µM
31 | O=C(O)CCc1cc(F)c(OCC2=C(C3CCCC3)CCC2)c(F)c1 [Compound 436] | > 10 µM | 0.159 µM
32 | O=C(O)CCc1ccc(OCC2=C(Cc3ccccc3F)CCC2)cc1Cl [Compound 438, 3-[2-chloro-4-[[2-[(2-fluorophenyl)methyl]cyclopenten-1-yl]methoxy]phenyl]Propanoic Acid] | 0.138 µM | 3.34 µM
33 | O=C(O)CCc1c(F)cc(OCC2=C(C3CCCC3)CCC2)cc1C(F)(F)F [Compound 439, 3-[4-[(2-cyclopentylcyclopenten-1-yl)methoxy]-2-fluoro-6-(trifluoromethyl)phenyl]Propanoic Acid] | > 10 µM | > 5 µM
34 | O=C(O)CCc1ccc(OCC2=C(Cc3nccs3)CCC2)cc1C(F)(F)F [Compound 440, 3-[4-[[2-(thiazol-2-ylmethyl)cyclopenten-1-yl]methoxy]-2-(trifluoromethyl)phenyl]Propanoic Acid] | 0.382 µM | 2.8 µM
